Measured values as given in US20260008862A1, “Bispecific Anti-BCMA x Anti-CD3 Antibodies and Uses Thereof” (Regeneron Pharmaceuticals, Inc., priority 2018, published 2026).
pEC50: −log10 of the molar value. Like-named read-outs stand apart in the source and are kept apart here.

What was measured:
human BCMA-MMH = molecular target: T1, human BCMA-MMH (Homo sapiens, UniProt Q02223); assay: SPR (Biacore 4000) binding kinetics to human BCMA-MMH; conditions: 25° C.
T1 construct: (human BCMA-MMH); myc-myc-hexahistidine (C); made in house
T1 sequence (Q02223 with tags, fused parts or gaps): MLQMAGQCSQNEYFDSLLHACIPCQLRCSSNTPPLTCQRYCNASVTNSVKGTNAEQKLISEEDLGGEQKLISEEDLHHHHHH
Method: (§1) The CM5 Biacore sensor surface was derivatized by amine coupling with a monoclonal mouse anti-human Fc antibody (GE, #BR-11008-39) to capture purified anti-BCMA mAbs and anti-BCMA×anti-CD3 bispecific mAbs. All Biacore binding studies were performed in a buffer composed of 0.01 M HEPES pH 7.4, 0.15M NaCl, 3 mM EDTA, 0.05% v/v Surfactant P20 (HBS-ET running buffer). […] Antigen samples were then injected over the anti-BCMA and anti-BCMA×anti-CD3 bispecific mAbs captured surfaces at a flow rate of 30 μL/minute. Antibody-reagent association was monitored for 5 minutes while dissociation in HBS-ET running buffer was monitored for 10 minutes. All of the binding kinetics experiments were performed at 25° C. Kinetic association (ka) and dissociation (kd) rate constants were determined by fitting the real-time sensorgrams to a 1:1 binding model using Scrubber 2.0c curve fitting software. Binding dissociation equilibrium constants (KD) and dissociative half-lives (t½) were calculated from the kinetic rate constants as: […]

monkey BCMA-MFC = assay: SPR (Biacore 4000) binding kinetics to monkey BCMA-MFC; conditions: 25° C.
Chain of monkey BCMA-MFC (as listed by the source): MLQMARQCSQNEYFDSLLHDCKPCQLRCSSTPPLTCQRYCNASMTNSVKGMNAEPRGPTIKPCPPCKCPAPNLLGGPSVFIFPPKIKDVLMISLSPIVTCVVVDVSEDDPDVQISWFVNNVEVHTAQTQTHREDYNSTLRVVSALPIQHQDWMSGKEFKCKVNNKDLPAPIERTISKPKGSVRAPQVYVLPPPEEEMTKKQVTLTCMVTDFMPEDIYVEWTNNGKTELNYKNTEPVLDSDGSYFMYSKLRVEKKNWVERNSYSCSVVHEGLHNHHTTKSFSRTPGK
Method: as §1

monkey BCMA-MMH = assay: SPR (Biacore 4000) binding kinetics to monkey BCMA-MMH; conditions: 25° C.
Chain of monkey BCMA-MMH (as listed by the source): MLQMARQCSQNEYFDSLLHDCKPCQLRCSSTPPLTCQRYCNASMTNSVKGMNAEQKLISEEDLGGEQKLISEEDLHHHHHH
Method: as §1

MC38/BCMA tumors = assay: Syngenic MC38/BCMA tumor model, combination with anti-PD-1, second experiment (Example 21); format: in vivo, mouse; conditions: REGN5458 0.04 or 0.4 mg/kg plus anti-PD-1 4 mg/kg
Excerpt: Implantation and measurement of syngenic tumors: C57BL/6 mice that express human CD3deg in place of murine CD3deg (CD3-humanized mice) were subcutaneously implanted with 1×10^6 MC38 colon carcinoma cells that have been engineered to express full-length human BCMA (MC38/BCMA).
Calculation of syngenic tumor growth and inhibition: In order to determine tumor volume by external caliper, the greatest longitudinal diameter (length in mm) and the greatest transverse diameter (width in mm) were determined. Tumor volumes based on caliper measurements were calculated by the formula: Volume (mm^3)=(length×width^2)/2.

[1] = system: primary cynomolgus plasma cells (CD138+); assay: Autologous T cell-mediated killing of cynomolgus monkey plasma cells; format: cell-based
Method: The specific killing of enriched CD138^+ human or cynomolgus monkey plasma cells by unstimulated autologous T cells was assessed by flow cytometry. Human or cynomolgus bone marrow aspirates and blood were provided within 24 hours of harvest. CD138^+ plasma cells were enriched from bone marrow by positive selection using the EasySep™ Human CD138^+ Positive Selection kit according to the manufacturer's instructions. PBMC from whole blood were isolated by density separation. PBMC were labeled with 1 μM of Vybrant™ CFDA-SE fluorescent tracking dye. […] At the end of the culture, surviving CD138^+ plasma cells were analyzed by flow cytometry, utilizing fixable LIVE/DEAD dye and plasma cell specific cell surface markers. Percent viability was normalized to control condition (plasma cells in the presence of PBMC only). T cell activation was assessed by flow cytometry. Activation is reported as the percentage of CD2^+/CD4^+ or CD2^+/CD8^+/CD16^− T cells expressing CD25. Percent T cell activation was normalized to control condition (plasma cells in the presence of PBMC only).

[2] = molecular target: T2, surface BCMA on MM cell lines (Homo sapiens, UniProt Q02223); assay: FACS surface BCMA after overnight incubation, MM cell lines overall; format: cell-based; conditions: 66.7 or 667 nM
T2 construct: human cell lines which express endogenous BCMA (e.g., NCI-H929, MOLP-8 or OMP-2); endogenous in cells; host or cells: multiple myeloma cell lines H929, Molp8, U266, MM1.S
T2 sequence (Q02223 1-184): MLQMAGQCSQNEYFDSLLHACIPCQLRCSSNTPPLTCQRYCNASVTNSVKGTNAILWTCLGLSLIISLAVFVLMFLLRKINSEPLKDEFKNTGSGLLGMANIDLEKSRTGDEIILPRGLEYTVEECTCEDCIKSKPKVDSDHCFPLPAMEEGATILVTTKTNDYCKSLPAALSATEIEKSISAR
Method: Flow cytometric analysis was utilized to determine the impact of overnight incubation of multiple myeloma cell lines with anti-BCMA antibodies on the level of surface BCMA. […] After 18 hours, wells were washed with cold FACS wash (PBS+1% filtered FBS) and resuspended in 667 nM of the same anti-BCMA antibody in cold stain buffer (Miltenyi 130-091-221) for 30 minutes on ice. After incubation, the cells were washed twice with cold FACS wash (PBS+1% filtered FBS) and bound antibody was detected by incubating with the appropriate anti-human secondary antibody (anti-hIgG or anti-HIS) on ice for an additional 30-45 minutes. After incubation, cells were washed, re-suspended in 200 μL cold PBS containing 1% filtered FBS and analyzed by flow cytometry on a BD FACS Canto II. Fold increase in staining was calculated by dividing the MFI of stained cells previously incubated overnight in BCMA abs or DAPT by the MFI of stained cells that were incubated overnight in media only.

[3] = Cynomolgus Monkey Donor 1 plasma cells, autologous T cells, maximum

## REGN5459: anti-BCMA×anti-CD3 bispecific antibody: BCMA HCVR of mAb21581 (SEQ 66), CD3 HCVR of mAb7221G20 (SEQ 98), common LCVR SEQ 82
Human BCMA-MMH
  ka: 730000 M⁻¹ s⁻¹
  kd: 0.00101 s⁻¹
Monkey BCMA-MFC
  ka: 482000 M⁻¹ s⁻¹
  kd: 7.15e-05 s⁻¹
Monkey BCMA-MMH
  ka: 223000 M⁻¹ s⁻¹
  kd: 0.00864 s⁻¹

## REGN5458: anti-BCMA×anti-CD3 bispecific antibody: BCMA HCVR of mAb21581 (SEQ 66), CD3 HCVR of mAb7221G (SEQ 90), common LCVR SEQ 82
MC38/BCMA tumors
  anti-tumor efficacy of the combination (in words): superior anti-tumor efficacy
[1]; [3]
  T Cell Activation (% CD25 Upregulation) CD4+ T cells % Activation: 9%
  T Cell Activation (% CD25 Upregulation) CD8+ T cells % Activation: 12%
[1]; Cynomolgus Monkey Donor 1 plasma cells, autologous T cells, read-out: T Cell Activation (% CD25 Upregulation) CD8+ T cells EC50
  pEC50: 7.65
[1]; Cynomolgus Monkey Donor 1 plasma cells, autologous primary cynomolgus T cells, E:T 10:1, 72 hours
  Cytotoxic Kill Max % Cytotoxicity: 94%
[1]; Cynomolgus Monkey Donor 1 plasma cells, autologous primary cynomolgus T cells, E:T 10:1, 72 hours, read-out: Cytotoxic Kill EC50
  pEC50: 8.88
[1]; Cynomolgus Monkey Donor 2 plasma cells, autologous T cells, maximum
  T Cell Activation (% CD25 Upregulation) CD4+ T cells % Activation: 16%
[1]; Cynomolgus Monkey Donor 2 plasma cells, autologous T cells, read-out: T Cell Activation (% CD25 Upregulation) CD4+ T cells EC50
  pEC50: ~7.74
[1]; Cynomolgus Monkey Donor 2 plasma cells, autologous primary cynomolgus T cells, E:T 10:1, 72 hours
  Cytotoxic Kill Max % Cytotoxicity: 91%
[1]; cynomolgus donor 1
  maximum percent T cell activation, CD4+ T cells: 9%
  maximum percent T cell activation, CD8+ T cells: 12%
  maximum percent cytotoxicity: 94%
[1]; cynomolgus donor 1, read-out: CD4+ T cell activation EC50
  pEC50: 7.55
[1]; cynomolgus donor 1, read-out: CD8+ T cell activation EC50
  pEC50: 7.65
[1]; cynomolgus donor 1, read-out: cytotoxicity EC50
  pEC50: 8.88
[1]; cynomolgus donor 2
  maximum percent T cell activation, CD4+ T cells: 16%
  maximum percent cytotoxicity: 91%
[1]; cynomolgus donor 2, read-out: CD4+ T cell activation EC50
  pEC50: 7.74
[1]; cynomolgus donor 2, read-out: CD8+ T cell activation EC50
  pEC50: 7.12
[2]
  surface BCMA after overnight incubation (in words): increased levels of surface BCMA
